Source: ChEMBL document CHEMBL4419173, “Small-molecule inhibitors targeting g-protein-coupled rho guanine nucleotide exchange factors” (2014)
The source made the active and inactive calls. The rule behind the calls is not given here.

Legend:
[1] = biological target: T1, RhoGEF 1/Transforming protein RhoA (Homo sapiens) (UniProt P61586+Q92888); experiment: (§1) Binding affinity to human LARG (765 to 1138 residues) DH-PH module expressed in mouse NIH/3T3 cells assessed as reduction in LARG binding to human full length RhoA (1 to 193 residues) by measuring relative LARG binding level at 5 uM pull-down assay (reference value: 1 No unit); assay type: cell-based
Mus musculus [2] = species on record: Mus musculus; experiment: Inhibition of RhoGEF in mouse NIH/3T3 cells assessed as inhibition of 10% calf serum-induced RhoA-GTP formation by measuring reduction in RhoA-GTP level at 2.5 uM in presence of 2.5 uM Rhosin/G04 incubated for 24 hrs by densitometry relative to control; assay type: cell-based
[3] = biological target: T1, RhoGEF 1/Transforming protein RhoA (Homo sapiens); experiment: Binding affinity to human LARG (765 to 1138 residues) DH-PH module expressed in mouse NIH/3T3 cells assessed as reduction in LARG binding to human full length RhoA (1 to 193 residues) by measuring relative LARG binding level at 10 uM pull-down assay (reference value: 1 No unit); assay type: cell-based
MCF7 [4] = experiment: Inhibition of RhoGEF in human MCF7 cells derived mammospheres assessed as inhibition of 10% calf serum-induced RhoA-GTP formation by measuring relative RhoA-GTP level at 10 uM incubated for 24 hrs by densitometry (reference value: 1); assay type: cell-based
Mus musculus [5] = species on record: Mus musculus; experiment: Inhibition of RhoGEF in mouse NIH/3T3 cells assessed as inhibition of 10% calf serum-induced RhoA-GTP formation by measuring relative RhoA-GTP level at 10 uM incubated for 24 hrs by densitometry (reference value: 1); assay type: cell-based
MCF7 [6] = experiment: Growth inhibition of human MCF7 cells at 2.5 to 15 uM in presence of 2.5 to 15 uM Rhosin/G04; assay type: functional, cell-based
Mus musculus [7] = species on record: Mus musculus; experiment: Inhibition of RhoGEF-mediated RhoA signaling in mouse NIH/3T3 cells assessed as reduction in 10% calf serum-induced stress fiber and focal complex formation 30 uM incubated for 24 hrs; assay type: cell-based
MCF7 [8] = experiment: Inhibition of RhoGEF in human MCF7 cells derived mammospheres assessed as inhibition of RhoA-mediated phospho-MLC formation at 10 uM incubated for 24 hrs by densitometry; assay type: cell-based
[9] = biological target: Intersectin-1 (Homo sapiens) (UniProt Q15811); experiment: Binding affinity to GST-tagged human intersectin-1 RhoGEF at 1 to 100000 nM by microscale thermophoresis analysis
Chain of Intersectin-1 (Homo sapiens) (Q15811 whole entry): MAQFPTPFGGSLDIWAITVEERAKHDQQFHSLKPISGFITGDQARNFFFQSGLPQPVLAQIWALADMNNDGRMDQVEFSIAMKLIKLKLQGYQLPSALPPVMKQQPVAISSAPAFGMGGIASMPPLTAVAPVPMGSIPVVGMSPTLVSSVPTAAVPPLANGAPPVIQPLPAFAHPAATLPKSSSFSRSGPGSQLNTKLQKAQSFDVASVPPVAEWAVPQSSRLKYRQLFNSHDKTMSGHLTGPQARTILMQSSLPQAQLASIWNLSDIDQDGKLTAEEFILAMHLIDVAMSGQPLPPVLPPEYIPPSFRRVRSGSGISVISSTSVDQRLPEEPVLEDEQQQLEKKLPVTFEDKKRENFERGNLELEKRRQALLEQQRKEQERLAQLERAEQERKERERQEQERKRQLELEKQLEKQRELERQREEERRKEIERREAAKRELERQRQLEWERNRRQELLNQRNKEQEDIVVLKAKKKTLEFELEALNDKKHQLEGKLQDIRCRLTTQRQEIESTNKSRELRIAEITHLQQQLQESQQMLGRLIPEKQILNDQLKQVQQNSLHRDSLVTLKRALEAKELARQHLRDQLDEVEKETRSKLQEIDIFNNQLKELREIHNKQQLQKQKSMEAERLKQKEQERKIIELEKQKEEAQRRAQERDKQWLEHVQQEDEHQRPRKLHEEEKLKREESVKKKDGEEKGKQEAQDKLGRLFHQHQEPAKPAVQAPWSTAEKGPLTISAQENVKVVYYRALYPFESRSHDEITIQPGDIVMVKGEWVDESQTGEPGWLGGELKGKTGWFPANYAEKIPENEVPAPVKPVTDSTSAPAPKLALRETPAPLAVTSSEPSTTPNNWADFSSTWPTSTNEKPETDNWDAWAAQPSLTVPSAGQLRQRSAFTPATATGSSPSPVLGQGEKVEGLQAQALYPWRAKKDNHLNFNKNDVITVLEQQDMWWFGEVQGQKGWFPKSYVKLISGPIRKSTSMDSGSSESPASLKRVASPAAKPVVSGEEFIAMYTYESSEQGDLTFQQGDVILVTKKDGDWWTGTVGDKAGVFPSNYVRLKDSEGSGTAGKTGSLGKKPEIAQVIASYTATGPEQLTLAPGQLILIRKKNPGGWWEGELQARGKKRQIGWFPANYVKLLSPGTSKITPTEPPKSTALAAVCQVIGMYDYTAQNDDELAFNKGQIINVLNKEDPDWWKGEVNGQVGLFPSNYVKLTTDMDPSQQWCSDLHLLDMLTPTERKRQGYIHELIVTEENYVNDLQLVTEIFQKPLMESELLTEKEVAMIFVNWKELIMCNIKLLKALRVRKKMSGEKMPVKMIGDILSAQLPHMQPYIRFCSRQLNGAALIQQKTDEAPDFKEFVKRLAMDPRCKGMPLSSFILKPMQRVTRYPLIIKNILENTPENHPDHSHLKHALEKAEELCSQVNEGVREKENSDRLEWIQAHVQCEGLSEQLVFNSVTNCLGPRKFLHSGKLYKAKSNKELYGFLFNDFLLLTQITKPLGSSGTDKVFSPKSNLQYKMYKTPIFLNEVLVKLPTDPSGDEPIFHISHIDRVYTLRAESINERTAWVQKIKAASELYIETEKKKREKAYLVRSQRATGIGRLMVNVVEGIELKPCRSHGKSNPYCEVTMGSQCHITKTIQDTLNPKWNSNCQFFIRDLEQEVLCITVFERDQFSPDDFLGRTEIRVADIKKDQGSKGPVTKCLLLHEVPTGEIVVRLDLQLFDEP

Mus musculus [10] = species on record: Mus musculus; experiment: Inhibition of RhoGEF-mediated Rac1 signaling in mouse NIH/3T3 cells assessed as reduction in PDGF-stimulated Rac1-mediated lamellipodia formation at 10 to 30 uM; assay type: cell-based
[11] = biological target: Rho guanine nucleotide exchange factor 12 (Homo sapiens, UniProt Q9NZN5); experiment: Inhibition of human LARG (765 to 1138 residues) RhoGEF-catalyzed guanine nucleotide-exchange reaction of human full length RhoA (1 to 193 residues) by measuring inhibition of the GDP dissociation from RhoA by Alexa 647 fluorescence dye based GDP/GTP exchange assay
Chain of Rho guanine nucleotide exchange factor 12 (Homo sapiens, UniProt Q9NZN5) (Q9NZN5 whole entry, the tested form may be a part): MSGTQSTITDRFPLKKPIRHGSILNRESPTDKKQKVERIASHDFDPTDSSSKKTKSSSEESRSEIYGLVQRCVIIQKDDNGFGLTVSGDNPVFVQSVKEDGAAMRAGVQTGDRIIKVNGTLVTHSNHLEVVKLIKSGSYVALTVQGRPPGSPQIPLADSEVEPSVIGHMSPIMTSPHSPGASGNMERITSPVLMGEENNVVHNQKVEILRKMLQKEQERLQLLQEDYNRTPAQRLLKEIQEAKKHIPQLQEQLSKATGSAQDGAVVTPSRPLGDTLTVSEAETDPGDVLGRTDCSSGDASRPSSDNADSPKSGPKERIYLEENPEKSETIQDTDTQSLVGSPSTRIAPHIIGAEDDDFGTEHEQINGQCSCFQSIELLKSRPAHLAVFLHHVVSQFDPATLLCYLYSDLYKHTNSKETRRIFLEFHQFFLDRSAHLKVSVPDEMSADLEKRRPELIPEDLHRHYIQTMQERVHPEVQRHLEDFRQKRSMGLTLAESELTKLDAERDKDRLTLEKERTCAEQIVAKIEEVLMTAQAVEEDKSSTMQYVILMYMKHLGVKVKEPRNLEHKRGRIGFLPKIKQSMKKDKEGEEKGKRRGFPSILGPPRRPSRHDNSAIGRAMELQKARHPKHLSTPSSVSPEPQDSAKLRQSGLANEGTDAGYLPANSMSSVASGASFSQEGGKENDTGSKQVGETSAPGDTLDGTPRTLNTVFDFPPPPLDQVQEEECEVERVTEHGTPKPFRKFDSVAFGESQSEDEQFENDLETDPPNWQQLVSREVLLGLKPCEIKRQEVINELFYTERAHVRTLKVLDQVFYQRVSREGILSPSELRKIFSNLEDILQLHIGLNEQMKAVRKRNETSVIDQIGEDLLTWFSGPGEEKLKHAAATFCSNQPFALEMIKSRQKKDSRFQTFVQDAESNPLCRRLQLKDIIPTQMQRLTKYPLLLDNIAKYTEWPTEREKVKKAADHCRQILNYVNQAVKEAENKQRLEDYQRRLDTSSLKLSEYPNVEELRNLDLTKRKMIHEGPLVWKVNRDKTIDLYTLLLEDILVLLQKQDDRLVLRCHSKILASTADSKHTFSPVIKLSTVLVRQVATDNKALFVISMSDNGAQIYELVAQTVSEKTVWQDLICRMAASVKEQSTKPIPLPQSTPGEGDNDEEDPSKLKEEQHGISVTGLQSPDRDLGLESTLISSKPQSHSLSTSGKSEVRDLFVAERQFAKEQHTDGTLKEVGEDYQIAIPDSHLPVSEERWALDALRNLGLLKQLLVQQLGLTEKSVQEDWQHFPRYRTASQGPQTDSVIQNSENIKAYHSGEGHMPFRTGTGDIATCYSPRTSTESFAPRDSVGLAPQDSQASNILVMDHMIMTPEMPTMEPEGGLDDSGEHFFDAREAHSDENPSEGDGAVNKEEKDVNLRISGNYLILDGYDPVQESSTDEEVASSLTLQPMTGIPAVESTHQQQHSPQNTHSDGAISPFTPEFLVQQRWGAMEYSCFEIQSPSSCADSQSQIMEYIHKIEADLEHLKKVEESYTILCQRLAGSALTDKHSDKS

Mus musculus [12] = species on record: Mus musculus; experiment: Inhibition of RhoGEF in mouse NIH/3T3 cells assessed as inhibition of 10% calf serum-induced Cdc42-GTP formation by measuring relative Cdc42-GTP level at 50 uM incubated for 24 hrs by densitometry (reference value: 1); assay type: cell-based
Mus musculus [13] = species on record: Mus musculus; experiment: Inhibition of RhoGEF in mouse NIH/3T3 cells assessed as inhibition of 10% calf serum-induced RhoA-GTP formation by measuring relative RhoA-GTP level at 2.5 uM in presence of 2.5 uM Rhosin/G04 incubated for 24 hrs by densitometry (reference value: 1); assay type: cell-based
Mus musculus [14] = species on record: Mus musculus; experiment: Inhibition of RhoGEF in mouse NIH/3T3 cells assessed as inhibition of 10% calf serum-induced RhoA-GTP formation by measuring reduction in RhoA-GTP level at 30 uM incubated for 24 hrs by densitometry relative to control; assay type: cell-based
[15] = biological target: Proto-oncogene DBL/Transforming protein RhoA (Homo sapiens) (UniProt P61586+P10911); experiment: Inhibition of GST-tagged human DBL RhoGEF DH-PH module expressed in mouse NIH/3T3 cells assessed as reduction in human full length RhoA (1 to 193 residues) interaction with DBL RhoGEF at 10 to 50 uM incubated for 1 hr by Western blot analysis based His-RhoA pull-down assay; assay type: cell-based
[16] = biological target: T1, RhoGEF 1/Transforming protein RhoA (Homo sapiens); experiment: as §1, with “at 2.5” for “at 5”, “uM in presence of 2.5 uM Rhosin/G04” for “uM”; assay type: cell-based
Mus musculus [17] = species on record: Mus musculus; experiment: Inhibition of RhoGEF in mouse NIH/3T3 cells assessed as inhibition of 10% calf serum-induced RhoA-GTP formation incubated for 24 hrs by densitometry; assay type: cell-based
[18] = biological target: Rho guanine nucleotide exchange factor 12 (Homo sapiens, UniProt Q9NZN5, V1099A); experiment: Binding affinity to recombinant human LARG (765 to 1138 residues) V1099A mutant by microscale thermophoresis analysis
Chain of Rho guanine nucleotide exchange factor 12 (Homo sapiens, UniProt Q9NZN5, V1099A) (Q9NZN5 2-1544 V1099A limits assumed): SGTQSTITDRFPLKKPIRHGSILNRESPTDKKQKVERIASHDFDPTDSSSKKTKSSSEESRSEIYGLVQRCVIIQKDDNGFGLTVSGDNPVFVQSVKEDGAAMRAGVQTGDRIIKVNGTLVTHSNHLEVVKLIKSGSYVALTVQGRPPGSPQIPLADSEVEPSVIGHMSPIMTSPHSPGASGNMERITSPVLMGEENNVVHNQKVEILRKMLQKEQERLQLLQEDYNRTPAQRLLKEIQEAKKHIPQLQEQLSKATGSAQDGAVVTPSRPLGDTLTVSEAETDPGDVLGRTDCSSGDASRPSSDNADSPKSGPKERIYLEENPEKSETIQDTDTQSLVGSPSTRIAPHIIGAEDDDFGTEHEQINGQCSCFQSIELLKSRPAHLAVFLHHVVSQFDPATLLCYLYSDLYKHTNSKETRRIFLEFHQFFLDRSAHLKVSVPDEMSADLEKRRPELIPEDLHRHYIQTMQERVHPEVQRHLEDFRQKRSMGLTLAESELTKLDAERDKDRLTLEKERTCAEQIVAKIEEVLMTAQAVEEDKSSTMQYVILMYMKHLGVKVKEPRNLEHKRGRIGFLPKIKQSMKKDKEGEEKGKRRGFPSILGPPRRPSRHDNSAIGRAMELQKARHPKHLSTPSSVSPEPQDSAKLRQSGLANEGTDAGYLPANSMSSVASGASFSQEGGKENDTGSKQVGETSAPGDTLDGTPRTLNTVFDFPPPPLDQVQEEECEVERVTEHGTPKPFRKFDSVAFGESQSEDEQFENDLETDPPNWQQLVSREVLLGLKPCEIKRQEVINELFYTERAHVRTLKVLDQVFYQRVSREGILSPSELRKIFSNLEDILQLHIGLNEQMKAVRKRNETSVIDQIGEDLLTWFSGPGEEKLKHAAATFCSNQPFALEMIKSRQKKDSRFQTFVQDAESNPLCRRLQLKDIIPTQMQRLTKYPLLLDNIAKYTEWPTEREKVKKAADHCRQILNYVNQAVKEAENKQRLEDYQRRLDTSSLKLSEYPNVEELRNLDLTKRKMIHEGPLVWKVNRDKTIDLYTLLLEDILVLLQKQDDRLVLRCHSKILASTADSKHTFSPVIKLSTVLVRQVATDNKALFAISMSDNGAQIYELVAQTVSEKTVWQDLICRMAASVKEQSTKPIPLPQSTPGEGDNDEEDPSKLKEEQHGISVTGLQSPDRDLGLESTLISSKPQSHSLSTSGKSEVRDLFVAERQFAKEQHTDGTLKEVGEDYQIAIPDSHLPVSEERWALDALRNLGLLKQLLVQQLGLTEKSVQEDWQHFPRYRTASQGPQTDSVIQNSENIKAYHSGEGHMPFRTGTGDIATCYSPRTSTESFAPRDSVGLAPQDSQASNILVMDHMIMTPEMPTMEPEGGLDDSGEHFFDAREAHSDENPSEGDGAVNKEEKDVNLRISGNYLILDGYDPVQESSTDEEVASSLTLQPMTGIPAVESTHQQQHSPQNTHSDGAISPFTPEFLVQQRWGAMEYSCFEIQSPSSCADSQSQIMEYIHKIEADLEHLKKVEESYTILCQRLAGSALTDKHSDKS

Homo sapiens = species on record: Homo sapiens; experiment: Inhibition of GST-tagged human TrioN RhoGEF (1284 to 1711 residues) expressed in mouse NIH/3T3 cells assessed as reduction in human full length Rac1 (1 to 192 residues) interaction with TrioN RhoGEF at 50 to 200 uM incubated for 1 hr by Western blot analysis based pull-down assay; assay type: cell-based
[19] = biological target: Rho guanine nucleotide exchange factor 12 (Homo sapiens, UniProt Q9NZN5, N983A); experiment: Binding affinity to recombinant human LARG (765 to 1138 residues) N983A mutant by microscale thermophoresis analysis
Chain of Rho guanine nucleotide exchange factor 12 (Homo sapiens, UniProt Q9NZN5, N983A) (Q9NZN5 2-1544 N983A limits assumed): as the sequence (Q9NZN5 2-1544 V1099A limits assumed) above, with N982A, A1098V counted along it

Mus musculus [20] = species on record: Mus musculus; experiment: Inhibition of RhoGEF in mouse NIH/3T3 cells assessed as inhibition of 10% calf serum-induced Rac1-GTP formation by measuring Rac1-GTP level at 30 uM incubated for 24 hrs by densitometry relative to control (reference value: 2.86); assay type: cell-based
Mus musculus [21] = species on record: Mus musculus; experiment: Inhibition of RhoGEF-mediated Cdc42 signaling in mouse NIH/3T3 cells assessed as reduction in Bradykinin-stimulated Cdc42-mediated filopodia formation at 10 to 30 uM; assay type: cell-based
[22] = test system: Rho-associated protein kinase 2 (Homo sapiens), O75116 [UNDEFINED MUTATION]; experiment: Inhibition of constitutively active ROCK2 mutant (unknown origin) expressed in mouse NIH/3T3 cells assessed as reduction in 10% calf serum-induced actin stress fiber formation at 30 uM by rhodamine-phalloidin staining based assay; assay type: cell-based
Mus musculus [23] = species on record: Mus musculus; experiment: Inhibition of RhoGEF in mouse NIH/3T3 cells assessed as inhibition of 10% calf serum-induced RhoA-GTP formation by measuring RhoA-GTP level at 10 uM incubated for 24 hrs by densitometry relative to control (reference value: 2.15); assay type: cell-based
Mus musculus [24] = species on record: Mus musculus; experiment: Inhibition of RhoGEF in mouse NIH/3T3 cells assessed as inhibition of 10% calf serum-induced RhoA-GTP formation by measuring relative RhoA-GTP level at 50 uM incubated for 24 hrs by densitometry (reference value: 1); assay type: cell-based

Question: How did the fold change (FC) [1] turn out when `Cc1cccc(COc2cccc(/C=C3\C(=O)NN(c4ccccc4)C3=O)c2)c1` was run?
Answer: 0.73

Question: What about the inhibition (Mus musculus [2]) of the same compound?
Answer: 50%

Question: What about the fold change (FC) [3] of the same compound?
Answer: 0.61

Question: What about the fold change (FC) (MCF7 [4]) of the same compound?
Answer: 0.4

Question: What about the fold change (FC) (Mus musculus [5]) of the same compound?
Answer: 0.8

Question: And the “growth inhibition (GI)” value (MCF7 [6])?
Answer: Active

Question: What about the inhibition (Mus musculus [7]) of the same compound?
Answer: Active

Question: What about the inhibition (MCF7 [8]) of the same compound?
Answer: 50%

Question: And the Activity [9]?
Answer: inactive

Question: And the inhibition (Mus musculus [10])?
Answer: inactive

Question: And the inhibition [11]?
Answer: Dose-dependent effect

Question: And the fold change (FC) (Mus musculus [12])?
Answer: 1.25

Question: What about the fold change (FC) (Mus musculus [13]) of the same compound?
Answer: 1.26

Question: What about the inhibition (Mus musculus [14]) of the same compound?
Answer: 80%

Question: What about the inhibition [15] of the same compound?
Answer: inactive

Question: And the fold change (FC) [16]?
Answer: 0.71

Question: What about the inhibition (Mus musculus [17]) of the same compound?
Answer: Dose-dependent effect

Question: What about the Kd [18] of the same compound?
Answer: 79 nM

Question: And the inhibition (Homo sapiens)?
Answer: inactive

Question: And the Kd [19]?
Answer: > 500000 nM

Question: What about the fold change (FC) (Mus musculus [20]) of the same compound?
Answer: 2.36

Question: And the inhibition (Mus musculus [21])?
Answer: inactive

Question: And the inhibition [22]?
Answer: inactive

Question: And the fold change (FC) (Mus musculus [23])?
Answer: 1.09

Question: And the fold change (FC) (Mus musculus [24])?
Answer: 0.26
